# Experiments:
# S. aureus ATCC 13709 = test: MIC, S. aureus ATCC 13709 (Alamar Blue broth microdilution); type: cell-based; details: Alamar Blue read after overnight incubation at 35° C.; for MIC: Staphylococcus aureus, ATCC13709, S. aureus; for MIC Sa: S. aureus
# E. coli ATCC 25922 = test: MIC, E. coli ATCC 25922; type: cell-based; details: Alamar Blue read after overnight incubation at 35° C.; for MIC: Escherichia coli, ATCC25922, E. coli; for MIC Ec: E. coli
Compound,MIC (S. aureus ATCC 13709) [µg/mL],MIC (E. coli ATCC 25922) [µg/mL],MIC Sa (S. aureus ATCC 13709) [µg/mL],MIC Ec (E. coli ATCC 25922) [µg/mL]
CNc1cccc2c1[nH]c1nc(Oc3cncc(C#N)c3)nc(N3CC(N)C4(CC4)C3)c12 (stereo not shown) [3.43],≤ 0.5,1,–,–
CNc1cc(F)cc2c1[nH]c1nc(Oc3cnc(C)nc3)nc(N3CC(NCCN)C4(CC4)C3)c12 (stereo not shown) [4.090],–,–,≤0.5,4
CNc1cc(F)cc2c1[nH]c1nc(Oc3cnc(C(C)(C)C)nc3)nc(N3CC[C@@H](N)C3)c12 [4.319],≤ 0.5,≤ 0.5,–,–
CNc1cccc2c1[nH]c1nc(Sc3cnc4cccnc4c3)nc(N3CCC(C)(N)C3)c12 (stereo not shown) [1.59],1,4,–,–
CNc1cccc2c1[nH]c1nc(Oc3cnc(C)nc3)nc(N3CC4C(C3)C4NCC3CC3)c12 (stereo not shown) [3.14],≤ 0.5,2,–,–
CNc1cc(F)cc2c1[nH]c1nc(Oc3cnc(C)nc3)nc(N3CC(C4(N)CC4)C3)c12 [4.080],–,–,≤0.5,1
CNc1cccc2c1[nH]c1nc(Sc3cnc4cccnc4c3)nc(N3CCN(c4cnccn4)CC3)c12 [1.54],≤ 0.5,> 64,–,–
NC1CN(c2nc(Sc3cnc4nccnc4c3)nc3[nH]c4ccccc4c23)C1 [1.5],> 64,> 64,–,–
CNc1cc(F)cc2c1[nH]c1nc(Oc3cnc(SC)nc3)nc(N3C[C@H]4C[C@@H]3C[C@H]4N)c12 [4.204],–,–,≤0.5,≤0.5
CNc1cc(F)cc2c1[nH]c1nc(Oc3ccc[n+]([O-])c3)nc(N3CC4C[C@@H](N)C4C3)c12 (stereo partly shown) [4.349],≤ 0.5,1,–,–
CNc1cccc2c1[nH]c1nc(Oc3cnc(C)nc3)nc(N3CC4C(C3)C4NCCC#N)c12 (stereo not shown) [3.11],≤ 0.5,2,–,–
CNc1cc(F)cc2c1[nH]c1nc(Oc3cncc(SC)c3)nc(N3C[C@H](N)C4(CC4)C3)c12 [4.354],≤ 0.5,1,–,–
CNc1cc(F)cc2c1[nH]c1nc(Oc3cnc(C)nc3)nc(-c3ccc(Cl)c(N)c3)c12 [4.419],≤ 0.5,> 16,–,–
CNc1cc(F)cc2c1[nH]c1nc(Oc3cnc(C)nc3)nc(N3CC4CCC(N)C4C3)c12 (stereo not shown) [4.102],–,–,≤0.5,2
CNc1cc(F)cc2c1[nH]c1nc(Oc3cncnc3)nc(N3C[C@H](N)C[C@H]3C)c12 [4.029],4,16,–,–
Cc1ncc(Oc2nc(N3C[C@H](N)C4(CC4)C3)c3c(n2)[nH]c2c(N(C)C(=O)[C@H](C)NC(=O)[C@H](C)N)cc(F)cc23)cn1 [4.425],> 16,> 16,–,–

Compound,MIC (S. aureus ATCC 13709) [µg/mL],MIC (E. coli ATCC 25922) [µg/mL],MIC Sa (S. aureus ATCC 13709) [µg/mL],MIC Ec (E. coli ATCC 25922) [µg/mL]
CNc1cccc2c1[nH]c1nc(Sc3cnc4cccnc4c3)nc(N3CCC(C(O)c4cccs4)CC3)c12 (stereo not shown) [1.70],1,> 32,–,–
CNc1cc(F)cc2c1[nH]c1nc(Oc3cnc(C4CC4)nc3)nc(N3CC4CC(N)C4C3)c12 (stereo not shown) [4.240],≤ 0.5,≤ 0.5,–,–
CNc1cc(F)cc2c1[nH]c1nc(Oc3ccc(C#N)nc3)nc(N3CCC(N)C3)c12 (stereo not shown) [4.331],–,–,≤0.5,≤0.5
CNc1cc(F)cc2c1[nH]c1nc(Oc3cnc4c(c3)ncn4C3CC3)nc(N3CC(N)C3)c12 [4.364],–,–,≤0.5,4
CNc1cccc2c1[nH]c1nc(Oc3cncc(C(=O)O)c3)nc(N3CC4C(N)C4C3)c12 (stereo not shown) [3.20],> 8,> 8,–,–
CNc1cccc2c1[nH]c1nc(Sc3cnc4nccnc4c3)nc(N3CC[C@H](N)C3)c12 [1.15],1,2,–,–
CNc1cc(F)cc2c1[nH]c1nc(Oc3cncc(F)c3)nc(N3CC4(CCC4N)C3)c12 (stereo not shown) [4.061],–,–,≤0.5,≤0.5
CNc1cc(F)cc2c1[nH]c1nc(Oc3cncc(Cl)c3)nc(N3CCC4(C[C@H]4N)C3)c12 (stereo partly shown) [4.278],≤ 0.5,≤ 0.5,–,–
CNc1cccc2c1[nH]c1nc(Oc3cncnc3)nc(N3CCC4(CNC4)C3)c12 [3.65],8,64,–,–
CNc1cc(F)cc2c1[nH]c1nc(Oc3cncc(-c4nn[nH]n4)c3)nc(N3CC4C(N)C4C3)c12 (stereo not shown) [4.224],1,> 16,–,–
Nc1cccc2c1[nH]c1nc(Oc3cnc4cccnc4c3)nc(N3CC4C(N)C4C3)c12 (stereo not shown) [2.8],–,–,16,>64
CNc1ncnc2c1[nH]c1nc(Oc3cnc(C)nc3)nc(N3CCC(CN)C3)c12 (stereo not shown) [7.12],> 64,> 64,–,–
CNc1cc(F)cc2c1[nH]c1nc(Oc3cnc(C)nc3)nc(N3CCC(F)(CN)CC3)c12 [4.159],≤ 0.5,≤ 0.5,–,–
CNc1cc(F)cc2c1[nH]c1nc(Oc3cnc(C)nc3)nc(N3CC4CC4(CN)C3)c12 (stereo not shown) [4.098],–,–,≤0.5,1
CNc1cc(F)cc2c1[nH]c1nc(Oc3cncnc3)nc(N3CCC4CNC4C3)c12 (stereo not shown) [4.018],≤ 0.5,≤ 0.5,–,–
CNc1cccc2c1[nH]c1nc(Sc3cc4ncccc4[n+]([O-])c3)nc(N3C[C@@H]4[C@@H](N)[C@@H]4C3)c12 [1.31],≤ 0.5,≤ 0.5,–,–

# From patent publication US10858360B2, “Tricyclic gyrase inhibitors” (priority 2011, dated 2020)
